# Assay results: patent US20120004282A1, “RNA Interference Mediated Inhibition of the Intercellular Adhesion Molecule 1 (ICAM-1) Gene Expression Using Short Interfering Nucleic Acid (siNA)” (Merck Sharp & Dohme Corp,, priority 2009, published 2012)
# [invAb] = inverted abasic unit; m = 2'-O-methyl; r = 2'-OH (RNA); f = 2'-fluoro
# Tested on: ICAM-1 mRNA
# Test: ICAM-1 mRNA knock-down in transfected Calu-1 cells (Taqman RT-PCR)
# Type: cell-based, human
# Details: Calu-1 cells, 10 nM siNA, 24 hrs post-transfection, mean ± S.D., relative to non-targeting control
# Description: Calu-1 (human; ATCC cat# HTB-54): Cells were cultured at 37° C. in the presence of 5% CO2 and grown in McCoy's 5a medium supplemented with fetal bovine serum at a final concentration of 10% and 100 μg/mL of streptomycin and 100 U/mL penicillin.
# All transfections were performed using RNAiMax (Invitrogen Cat# 13778-150) as per the manufacturer's instructions.
# Calu-1 cells were plated in all wells of a tissue-culture treated, 96-well plate at final counts of 5,000 cells/well in 100 μL of appropriate culture media. Cells were cultured for 24 hours after plating at 37° C. in the presence of 5% CO2.
# After 24 hours, complexes containing siNA and RNAiMax were created as follows. A solution of RNAiMax diluted 33-fold in OPTI-MEM was prepared. In parallel, solutions of the siNAs for testing were prepared to a final concentration of 120 nM in OPTI-MEM. After incubation of RNAiMax/OPTI-MEM solution at room temperature for 5 min, an equal volume of the siNA solution and the RNAiMax solution were added together for each of the siNAs. […] This solution was incubated at room temperature for 20 minutes. After incubation, 20 uL of the solution was added to each of the relevant wells. The final concentration of siNA in each well was 10 nM and the final volume of RNAiMax in each well was 0.3 uL.
# The time of incubation with the RNAiMax-siNA complexes was 24 hours, unless otherwise indicated. There was no change in media between the transfection and harvesting of the cells unless otherwise indicated.
# Dose response curves were carried out in a similar fashion in 96-well plates, while maintaining a constant amount of RNAiMax in each transfection.
# RNA was extracted from a 96-well plate using the TaqMan® Gene Expression Cells-to-CT™ Kit (Cat# 4399002) with a modified protocol. Briefly, a 60 uL (1 plate) or 110 uL (2 plates) of the Lysis Solution with DNase I was dispensed into each well of the Lysis Buffer Plate (twin.tec full skirt plate). The lysis buffer and stop plates were stored at 4° C. until the cells were washed.
# The plate was spun at 1100 rpm for 5 minutes. The culture medium was aspirated and discarded from the wells of the culture plate. The lysis was performed automatically using a BioMek FX instrument and method. After the Biomek method was completed, the lysis plate was incubated for 2 min. at room temperature. The lysis plate can be stored for 2 hours at 4° C., or at −20° C. or −80° C. for two months.
# Each well of the reverse transcription plate required 10 uL of 2× reverse transcriptase Buffer, 1 uL of 20× reverse transcription enzyme and 2 uL of nuclease-free water. The reverse transcription master mix was prepared by mixing 2× reverse transcription buffer, 20× reverse transcription enzyme mix, and nuclease-free water. 13 uL of the reverse transcription master mix was dispensed into each well of the reverse transcription plate (semi-skirted). A separate reverse transcription plate was prepared for each cell plate. The plate was loaded onto a Biomek NX or Biomek FX Dual-96 and the Biomek method was run. The program is programmed to automatically added 7 uL of lysate from the cell lysis procedure described above into each well of the reverse transcription plate. The plate is sealed and spun on a centrifuge (1000 rpm for 30 seconds) to settle the contents to the bottom of the reverse transcription plate. The plate is placed in a thermocycler at 37° C. for 60 min, 95° C. for 5 min, and 4° C. until the plate is removed from the thermocycler. Upon removal, if not used immediately, the plate was frozen at −20° C.
# A series of probes and primers were used to detect the various mRNA transcripts of the genes of ICAM-1 and ICAM-2 in human cell lines (see Table 2). All the Taqman probes and primers for the experiments here-in described were supplied as pre-validated sets by Applied Biosystems, Inc., (see Table 2). The assays were performed on an ABI 7900 instrument, according to the manufacturer's instructions. […]
row,Substance,% KD Human
1,"48714-DC: siNA duplex, ICAM-1 target site 1089 (m); sense B GGGucGAAGGuGGuucuuc TTB; antisense GAAGAAccAccuucGAcccUU (sense GGGUCGAAGGUGGUUCUUCTT; antisense GAAGAACCACCUUCGACCCUU; sense: DNA at AGT, 2'-fluoro at CU, [invAb] at 5' end, 3' end, backbone not given here; antisense: sugars from the 5' end rrrmmmffmfffffmmfffmm, backbone not given here)",48 ± 22%
2,"48724-DC: siNA duplex, ICAM-1 target site 560 (h); sense B cuGAGcAAuGuGcAAGAAG TTB; antisense CUUcuuGcAcAuuGcucAcUU (sense CUGAGCAAUGUGCAAGAAGTT; antisense CUUCUUGCACAUUGCUCACUU; sense: DNA at AGT, 2'-fluoro at CU, [invAb] at 5' end, 3' end, backbone not given here; antisense: sugars from the 5' end rrrfffmfmfmffmfffmfmm, backbone not given here)",34 ± 8%
3,"48705-DC: siNA duplex, ICAM-1 target site 987 (m); sense B AGGAccuuAAcAGucuAcA TTB; antisense UGUAGAcuGuuAAGGuccuUU (sense AGGACCUUAACAGUCUACATT; antisense UGUAGACUGUUAAGGUCCUUU; sense: DNA at AGT, 2'-fluoro at CU, [invAb] at 5' end, 3' end, backbone not given here; antisense: sugars from the 5' end rrrmmmffmffmmmmffffmm, backbone not given here)",5 ± 51%
4,"48708-DC: siNA duplex, ICAM-1 target site 1762 (m); sense B AcAGcAuuuAcccucAGcc TTB; antisense GGCuGAGGGuAAAuGcuGuUU (sense ACAGCAUUUACCCUCAGCCTT; antisense GGCUGAGGGUAAAUGCUGUUU; sense: DNA at AGT, 2'-fluoro at CU, [invAb] at 5' end, 3' end, backbone not given here; antisense: sugars from the 5' end rrrfmmmmmfmmmfmffmfmm, backbone not given here)",22 ± 9%
5,"48700-DC: siNA duplex, ICAM-1 target site 1549 (m); sense B uGccAGuAcuGcuGGucAu TTB; antisense AUGAccAGcAGuAcuGGcAUU (sense UGCCAGUACUGCUGGUCAUTT; antisense AUGACCAGCAGUACUGGCAUU; sense: DNA at AGT, 2'-fluoro at CU, [invAb] at 5' end, 3' end, backbone not given here; antisense: sugars from the 5' end rrrmffmmfmmfmffmmfmmm, backbone not given here)",13 ± 5%
6,"48703-DC: siNA duplex, ICAM-1 target site 394 (m); sense B ccGuGuAuucGuuuccGGA TTB; antisense UCCGGAAAcGAAuAcAcGGUU (sense CCGUGUAUUCGUUUCCGGATT; antisense UCCGGAAACGAAUACACGGUU; sense: DNA at AGT, 2'-fluoro at CU, [invAb] at 5' end, 3' end, backbone not given here; antisense: sugars from the 5' end rrrmmmmmfmmmfmfmfmmmm, backbone not given here)",30 ± 15%
7,"48702-DC: siNA duplex, ICAM-1 target site 990 (m); sense B AccuuAAcAGucuAcAAcu TTB; antisense AGUuGuAGAcuGuuAAGGuUU (sense ACCUUAACAGUCUACAACUTT; antisense AGUUGUAGACUGUUAAGGUUU; sense: DNA at AGT, 2'-fluoro at CU, [invAb] at 5' end, 3' end, backbone not given here; antisense: sugars from the 5' end rrrfmfmmmffmffmmmmfmm, backbone not given here)",19 ± 6%
8,"48720-DC: siNA duplex, ICAM-1 target site 1609 (h); sense B GuGucuAAAGGAuGGcAcu TTB; antisense AGUGccAuccuuuAGAcAcUU (sense GUGUCUAAAGGAUGGCACUTT; antisense AGUGCCAUCCUUUAGACACUU; sense: DNA at AGT, 2'-fluoro at CU, [invAb] at 5' end, 3' end, backbone not given here; antisense: sugars from the 5' end rrrmffmffffffmmmfmfmm, backbone not given here)",48 ± 20%
9,"48727-DC: siNA duplex, ICAM-1 target site 1521 (h); sense B GGGAuuGuccGGGAAAcuG TTB; antisense CAGuuucccGGAcAAucccUU (sense GGGAUUGUCCGGGAAACUGTT; antisense CAGUUUCCCGGACAAUCCCUU; sense: DNA at AGT, 2'-fluoro at CU, [invAb] at 5' end, 3' end, backbone not given here; antisense: sugars from the 5' end rrrffffffmmmfmmffffmm, backbone not given here)",23 ± 6%
10,"48698-DC: siNA duplex, ICAM-1 target site 1611 (m); sense B AGAAAGAucAGGAuAuAcA TTB; antisense UGUAuAuccuGAucuuucuUU (sense AGAAAGAUCAGGAUAUACATT; antisense UGUAUAUCCUGAUCUUUCUUU; sense: DNA at AGT, 2'-fluoro at CU, [invAb] at 5' end, 3' end, backbone not given here; antisense: sugars from the 5' end rrrmfmffffmmfffffffmm, backbone not given here)",34 ± 6%
11,"29290-DC: siNA duplex, ICAM-1 target site 1226 (h); sense B cAGAcAGuGAccAucuAcA TTB; antisense UGUAGAuGGucAcuGucuGUU (sense CAGACAGUGACCAUCUACATT; antisense UGUAGAUGGUCACUGUCUGUU; sense: DNA at AGT, 2'-fluoro at CU, [invAb] at 5' end, 3' end, backbone not given here; antisense: sugars from the 5' end rrrmmmfmmffmffmfffmmm, backbone not given here)",47 ± 18%
12,"48707-DC: siNA duplex, ICAM-1 target site 258 (m); sense B AcucAGuGGcuGAAAGAuG TTB; antisense CAUcuuucAGccAcuGAGuUU (sense ACUCAGUGGCUGAAAGAUGTT; antisense CAUCUUUCAGCCACUGAGUUU; sense: DNA at AGT, 2'-fluoro at CU, [invAb] at 5' end, 3' end, backbone not given here; antisense: sugars from the 5' end rrrfffffmmffmffmmmfmm, backbone not given here)",46 ± 17%
13,"48697-DC: siNA duplex, ICAM-1 target site 1641 (m); sense B GcucAGGAGGAGGccAuAA TTB; antisense UUAuGGccuccuccuGAGcUU (sense GCUCAGGAGGAGGCCAUAATT; antisense UUAUGGCCUCCUCCUGAGCUU; sense: DNA at AGT, 2'-fluoro at CU, [invAb] at 5' end, 3' end, backbone not given here; antisense: sugars from the 5' end rrrfmmfffffffffmmmfmm, backbone not given here)",14 ± 11%
